This is an account of results in patent publication US10435399B2, “HDAC6 inhibitory heterocyclic compound” (TAKEDA PHARMACEUTICAL COMPANY LIMITED, priority 2017, dated 2019).

The target in the first assay is T1, HDAC6 enzyme (Homo sapiens, UniProt Q9UBN7).
T1 construct: transducing full length HDAC6 gene into Sf-9 insect cells; GST; purchased SignalChem; host or cells: Sf-9 insect cells
T1 sequence (Q9UBN7 1-1215): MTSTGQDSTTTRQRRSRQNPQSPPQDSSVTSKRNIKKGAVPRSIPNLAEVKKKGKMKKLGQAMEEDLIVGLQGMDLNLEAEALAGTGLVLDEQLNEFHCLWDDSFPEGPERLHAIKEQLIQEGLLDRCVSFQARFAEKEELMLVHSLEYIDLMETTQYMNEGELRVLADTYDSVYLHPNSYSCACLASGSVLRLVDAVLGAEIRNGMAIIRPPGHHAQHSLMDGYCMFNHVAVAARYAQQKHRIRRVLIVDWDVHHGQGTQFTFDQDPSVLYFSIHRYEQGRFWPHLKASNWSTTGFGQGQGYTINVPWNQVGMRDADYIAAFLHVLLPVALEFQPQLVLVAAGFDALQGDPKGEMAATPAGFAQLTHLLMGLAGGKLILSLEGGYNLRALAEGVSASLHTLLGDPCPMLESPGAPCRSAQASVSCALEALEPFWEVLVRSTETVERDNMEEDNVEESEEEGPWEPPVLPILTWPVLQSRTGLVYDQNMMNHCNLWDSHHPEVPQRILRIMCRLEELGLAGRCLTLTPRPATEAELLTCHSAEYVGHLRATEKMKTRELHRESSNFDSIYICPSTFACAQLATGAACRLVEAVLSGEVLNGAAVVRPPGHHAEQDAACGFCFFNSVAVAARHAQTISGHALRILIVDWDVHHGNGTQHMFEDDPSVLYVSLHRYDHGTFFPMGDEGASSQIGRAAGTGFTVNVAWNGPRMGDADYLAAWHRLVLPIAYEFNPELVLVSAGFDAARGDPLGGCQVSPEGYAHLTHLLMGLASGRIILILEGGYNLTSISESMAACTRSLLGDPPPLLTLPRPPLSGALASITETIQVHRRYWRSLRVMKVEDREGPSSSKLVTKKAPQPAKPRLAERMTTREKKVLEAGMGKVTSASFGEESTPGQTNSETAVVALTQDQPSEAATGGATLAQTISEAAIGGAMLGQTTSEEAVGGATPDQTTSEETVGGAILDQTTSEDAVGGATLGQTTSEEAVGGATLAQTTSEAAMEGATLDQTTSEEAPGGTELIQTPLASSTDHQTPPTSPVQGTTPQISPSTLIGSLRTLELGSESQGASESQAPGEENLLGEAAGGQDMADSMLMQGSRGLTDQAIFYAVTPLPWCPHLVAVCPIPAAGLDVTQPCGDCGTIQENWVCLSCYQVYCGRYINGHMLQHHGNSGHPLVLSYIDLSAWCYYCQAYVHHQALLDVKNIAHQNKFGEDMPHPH
The assay is described as follows: HDAC6 enzyme inhibitory activity (HDAC-Glo I/II Assay kit). It counts as biochemical. The conditions noted are these: 10 μM; wells without enzyme = 100% inhibition. The method, boiled down: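 Full-length human HDAC6 (GST-purified, Sf-9 expressed) preincubated with compound 60 min at room temperature in Tris-HCl pH 7.5 buffer with MgCl2, KCl, NaCl, glutathione, Tween-20. HDAC-Glo I/II substrate-developer then added, 20 min room temperature, luminescence read. Inhibition relative to no-enzyme wells as 100%.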
As to `O=C1c2cc(-c3nnc(C(F)F)o3)cnc2CN1[C@@H]1COCC[C@H]1Oc1ccc(F)cc1` [Example 633, 1,5-anhydro-2,4-dideoxy-2-(3-(5-(difluoromethyl)-1,3,4-oxadiazol-2-yl)-5-oxo-5,7-dihydro-6H-pyrrolo[3,4-b]pyridin-6-yl)-3-O-(4-fluorophenyl)-threo-pentitol (Optical Isomer)], the “HDAC6 inhibitory rate (%) (10 μM)” value came out at 100%.

With `O=C1c2cc(-c3nnc(C(F)F)o3)cnc2CN1[C@@H]1COCC[C@H]1Oc1ccc(F)c(F)c1` [Example 649, 1,5-anhydro-2,4-dideoxy-2-(3-(5-(difluoromethyl)-1,3,4-oxadiazol-2-yl)-5-oxo-5,7-dihydro-6H-pyrrolo[3,4-b]pyridin-6-yl)-3-O-(3,4-difluorophenyl)-threo-pentitol (Optical Isomer)], the “HDAC6 inhibitory rate (%) (10 μM)” value turned out to be 100%.

The assay is the same for the next values; noted with them: 10 μM; wells without enzyme = 100% inhibition; read-out: HDAC6 inhibitory rate (%) (10 μM).
`O=C1c2cc(-c3nnc(C(F)F)o3)ccc2CN1[C@@H]1CCCC(F)(F)[C@@H]1NC(=O)C(F)(F)C(F)F` [Example 628, N-((1R,6R)-6-(6-(5-(difluoromethyl)-1,3,4-oxadiazol-2-yl)-1-oxo-1,3-dihydro-2H-isoindol-2-yl)-2,2-difluorocyclohexyl)-2,2,3,3-tetrafluoropropanamide]: the inhibition at 10 µM was determined as 100%.

Regarding `O=C(N[C@@H]1[C@H](N2Cc3ccc(-c4nnc(C(F)F)o4)cc3C2=O)CCCC1(F)F)C(F)F` [Example 629, N-((1R,6R)-6-(6-(5-(difluoromethyl)-1,3,4-oxadiazol-2-yl)-1-oxo-1,3-dihydro-2H-isoindol-2-yl)-2,2-difluorocyclohexyl)-2,2-difluoroacetamide], the inhibition at 10 µM is 100%. Regarding `Cc1ccc(C2CCCCN2N2Cc3ccc(-c4nnc(C(F)F)o4)cc3C2=O)cn1` (stereo not drawn) [Example 630, 6-(5-(difluoromethyl)-1,3,4-oxadiazol-2-yl)-2-(2-(6-methylpyridin-3-yl)piperidin-1-yl)isoindolin-1-one], the inhibition at 10 µM is 100%. Still for that read-out and setting: in the case of `Cn1cc(C(C)(C)O)c(N2Cc3ccc(-c4nnc(C(F)F)o4)cc3C2=O)n1` [Example 631, 6-(5-(difluoromethyl)-1,3,4-oxadiazol-2-yl)-2-(4-(2-hydroxypropan-2-yl)-1-methyl-1H-pyraozl-3-yl)isoindolin-1-one] it was 99%; in that of `O=C1c2cc(-c3nnc(C(F)F)o3)cnc2CN1[C@@H]1COCC[C@H]1Oc1ccc(F)cc1` [Example 632, 1,5-anhydro-2,4-dideoxy-2-(3-(5-(difluoromethyl)-1,3,4-oxadiazol-2-yl)-5-oxo-5,7-dihydro-6H-pyrrolo[3,4-b]pyridin-6-yl)-3-O-(4-fluorophenyl)-threo-pentitol], 99%.

Turning to `CC(C)(C)OC(=O)N[C@@H]1CCC(F)(F)C[C@H]1N1Cc2ccc(-c3nnc(C(F)F)o3)cc2C1=O` [Example 634, tert-butyl ((1R,2R)-2-(6-(5-(difluoromethyl)-1,3,4-oxadiazol-2-yl)-1-oxo-1,3-dihydro-2H-isoindol-2-yl)-4,4-difluorocyclohexyl)carbamate], the inhibition at 10 µM amounted to 99%.

For `O=C1c2cc(-c3nnc(C(F)F)o3)ccc2CN1[C@@H]1CC(F)(F)CC[C@H]1NC(=O)C(F)(F)C(F)(F)F` [Example 635, N-((1R,2R)-2-(6-(5-(difluoromethyl)-1,3,4-oxadiazol-2-yl)-1-oxo-1,3-dihydro-2H-isoindol-2-yl)-4,4-difluorocyclohexyl)-2,2,3,3,3-pentafluoropropanamide], the inhibition at 10 µM was 99%.

For `O=C1c2cc(-c3nnc(C(F)F)o3)ccc2CN1[C@@H]1CC(F)(F)CC[C@H]1NC(=O)C(F)(F)C(F)F` [Example 636, N-((1R,2R)-2-(6-(5-(difluoromethyl)-1,3,4-oxadiazol-2-yl)-1-oxo-1,3-dihydro-2H-isoindol-2-yl)-4,4-difluorocyclohexyl)-2,2,3,3-tetrafluoropropanamide], the inhibition at 10 µM is 100%. For `CC(F)(F)C(=O)N[C@@H]1CCC(F)(F)C[C@H]1N1Cc2ccc(-c3nnc(C(F)F)o3)cc2C1=O` [Example 637, N-((1R,2R)-2-(6-(5-(difluoromethyl)-1,3,4-oxadiazol-2-yl)-1-oxo-1,3-dihydro-2H-isoindol-2-yl)-4,4-difluorocyclohexyl)-2,2-difluoropropanamide], the inhibition at 10 µM came to 100%.

In the case of `N[C@@H]1CCC(F)(F)C[C@H]1N1Cc2ncc(-c3nnc(C(F)F)o3)cc2C1=O` [Example 638, 6-((1R,2R)-2-amino-5,5-difluorocyclohexyl)-3-(5-(difluoromethyl)-1,3,4-oxadiazol-2-yl)-6,7-dihydro-5H-pyrrollo[3,4-b]pyridin-5-one], the inhibition at 10 µM came to 93%. On the same count and under the same terms, in the case of `CC(F)(F)C(=O)N[C@@H]1CC(F)(F)CC[C@H]1N1Cc2ncc(-c3nnc(C(F)F)o3)cc2C1=O` [Example 639, N-((1R,2R)-2-(3-(5-(difluoromethyl)-1,3,4-oxadiazol-2-yl)-5-oxo-5,7-dihydro-6H-pyrrolo[3,4-b]pyridin-6-yl)-5,5-difluorocyclohexyl)-2,2-difluoropropanamide] it was 100%; in that of `O=C1c2cc(-c3nnc(C(F)F)o3)cnc2CN1[C@@H]1CCC(F)(F)C[C@H]1NC(=O)C(F)(F)C(F)(F)F` [Example 640, N-((1R,2R)-2-(3-(5-(difluoromethyl)-1,3,4-oxadiazol-2-yl)-5-oxo-5,7-dihydro-6H-pyrrolo[3,4-b]pyridin-6-yl)-5,5-difluorocyclohexyl)-2,2,3,3,3-pentafluoropropanamide], 100%; in that of `O=C1c2cc(-c3nnc(C(F)F)o3)cnc2CN1[C@@H]1CCC(F)(F)C[C@H]1NC(=O)C(F)(F)C(F)F` [Example 641, N-((1R,2R)-2-(3-(5-(difluoromethyl)-1,3,4-oxadiazol-2-yl)-5-oxo-5,7-dihydro-6H-pyrrolo[3,4-b]pyridin-6-yl)-5,5-difluorocyclohexyl)-2,2,3,3-tetrafluoropropanamide], 99%. Consider `O=C1c2cc(-c3nnc(C(F)F)o3)cnc2CN1[C@@H]1CC(F)(F)CC[C@H]1NC(=O)C(F)(F)C(F)(F)F` [Example 642, N-((1R,2R)-2-(3-(5-(difluoromethyl)-1,3,4-oxadiazol-2-yl)-5-oxo-5,7-dihydro-6H-pyrrolo[3,4-b]pyridin-6-yl)-4,4-difluorocyclohexyl)-2,2,3,3,3-pentafluoropropanamide], for which the inhibition at 10 µM amounted to 100%. The same measure, in the same setting: in the case of `CC(F)(F)C(=O)N[C@@H]1CCC(F)(F)C[C@H]1N1Cc2ncc(-c3nnc(C(F)F)o3)cc2C1=O` [Example 643] it was 100%; in that of `O=C1c2cc(-c3nnc(C(F)F)o3)cnc2CN1[C@@H]1CC(F)(F)CC[C@H]1NC(=O)C(F)(F)C(F)F` [Example 644, N-((1R,2R)-2-(3-(5-(difluoromethyl)-1,3,4-oxadiazol-2-yl)-5-oxo-5,7-dihydro-6H-pyrrolo[3,4-b]pyridin-6-yl)-4,4-difluorocyclohexyl)-2,2,3,3-tetrafluoropropanamide], 99%. On the same count and under the same terms, in the case of `CCN(CC)C(=O)C1CC(F)(F)CCN1N1Cc2ccc(-c3nnc(C(F)F)o3)cc2C1=O` (stereo not drawn) [Example 645, 1-(6-(5-(difluoromethyl)-1,3,4-oxadiazol-2-yl)-1-oxo-1,3-dihydro-2H-isoindol-2-yl)-N,N-diethyl-4,4-difluoropiperidine-2-carboxamide] it was 99%.

Take `O=C1c2cc(-c3nnc(C(F)F)o3)cnc2CN1[C@@H]1COCC[C@H]1Oc1ccc(F)c(F)c1` [Example 646, 1,5-anhydro-2,4-dideoxy-2-(3-(5-(difluoromethyl)-1,3,4-oxadiazol-2-yl)-5-oxo-5,7-dihydro-6H-pyrrolo[3,4-b]pyridin-6-yl)-3-O-(3,4-difluorophenyl)-threo-pentitol]: the inhibition at 10 µM was determined as 99%. The same measure, in the same setting: in the case of `O=C1c2cc(-c3nnc(C(F)F)o3)cnc2CN1[C@@H]1COCC[C@H]1Oc1ccccc1F` [Example 647, 1,5-anhydro-2,4-dideoxy-2-(3-(5-(difluoromethyl)-1,3,4-oxadiazol-2-yl)-5-oxo-5,7-dihydro-6H-pyrrolo[3,4-b]pyridin-6-yl)-3-O-(2-fluorophenyl)-threo-pentitol (optical isomer)] it was 100%.
